Data as given in publication PMC10147685, “Safety, tolerability, and pharmacokinetics of Aurora kinase B inhibitor AZD2811: a phase 1 dose-finding study in patients with advanced solid tumours” (British Journal of Cancer, 2023).
Read-outs that look alike come from different tables or passages of the source.

Assay: Pharmacokinetics: AZD2811 whole blood concentrations and urine excretion
Assay type: in vivo, human
Conditions: for Cmax / AUC(0-t) / Tmax: human, whole blood; for Cmax: read-out: Geometric mean Cmax (CV%); for AUC(0-t): compartmental PK analysis, read-out: Geometric mean AUC(0–504h) (CV%); for Tmax: read-out: Median tmax (range)
Description: AEs were assessed throughout the treatment and follow-up periods. Patients were followed until all treatment-related toxicity resolved, or for at least 30 days post-study drug discontinuation. AEs were graded according to CTCAE v4.03. Venous blood samples (4 mL) for measurement of AZD2811 concentrations were collected at Cycle 1 Days 1–6, 8, 15, 16, and 22 and Cycle 2 Day 1 in Cohorts 1–6; Cycle 1 Days 1, 4, 8, 12, and 22 in Cohort 7; Cycle 1 Days 1, 4, 8, 12, and 15 and Cycle 2 Day 1 in Cohorts 8–12. Tumour imaging assessments using computed tomography or magnetic resonance imaging of the chest and abdomen/pelvis were performed at screening (≤28 days prior to initiation of treatment), and then every 2 cycles.
The safety analysis set comprised all patients who received at least one dose of AZD2811. The PK analysis set comprised all patients who received at least one dose of AZD2811 with at least one reportable concentration. […] There was no formal statistical analysis of safety and efficacy data. The numbers of patients experiencing each AE were summarised by Medical Dictionary for Regulatory Activities (MedDRA) version 22.1 system organ class, MedDRA preferred term, and CTCAE grade. The ORR and best overall response based on RECIST 1.1 were summarised. AZD2811 blood concentrations and derived PK parameters were summarised by dose regimen. Summary statistics were calculated for area under the curve (AUC), time of maximum concentration (tmax), and maximum concentration after a single dose (Cmax).
Compartmental PK analysis was used to derive AUC from time zero to the time of the last planned sampling time in the study (AUC0–504h). Cmax and tmax were derived using the standard non-compartmental approach. PK parameters of Cmax, tmax, and AUC0–504h are summarised by cohort in Supplementary Table 2, and geometric mean AZD2811 whole blood concentrations are presented by cohort in Fig. 3. Maximum AZD2811 whole blood concentrations were observed after the end of infusions (Days 1 and 4). […] There was evidence of a second and third phase, 96 and 264 h post-dose. […] Urine samples were only collected in the first four cohorts, and AZD2811 concentrations were below the limit of quantification in the majority (>80%). Consequently, only the total amount of unchanged AZD2811 excreted into urine over 0–72 h was calculated; the maximum amount excreted was 294.40 µg for a patient in Cohort 4 (51 mg AZD2811), which represented <1% of the dose.
Fig. 3 Geometric mean (±geoSD) AZD2811 whole blood concentrations. a For days 1 and 4 regimens and b for day 1 only regimens. In Cohorts 1–6, PK blood samples (4 mL per sample) for determination of AZD2811 blood concentrations were collected from all patients on Cycle 1 Day 1 pre-dose, and at 1, 2, 4, 6, 8, 24, and 48 h (±15 min for each time point) from the start of infusion, then on Cycle 1 Day 4 pre-dose, and at 1, 2, 4, 6, 8, and 24 h (day 5), 48 h (day 6), 96 h (day 8) from the start of infusion, and in the morning on days 15, 16, and 22. A Cycle 2 Day 1 pre-dose sample and a 2-h sample (end of infusion) were also obtained. In Cohorts 7–12, PK blood samples were collected from all patients on Cycle 1 Day 1 pre-dose, and at 1, 2, 4, 6, and 8 h from the start of infusion, and in the morning on Days 4, 8, 12, and 22. G-CSF granulocyte colony stimulating factor, PK pharmacokinetics, Q3W every 3 weeks, Q4W every 4 weeks.

[1] = intravenous, 15 mg, Cohort 1: 15 mg, Days 1 and 4, 28-day cycles, no G-CSF, N = 3
[2] = intravenous, 25 mg, Cohort 2: 25 mg, Days 1 and 4, 28-day cycles, no G-CSF, N = 3
[3] = intravenous, 38 mg, Cohort 3: 38 mg, Days 1 and 4, 28-day cycles, no G-CSF, N = 3
[4] = intravenous, 51 mg, Cohort 4: 51 mg, Days 1 and 4, 28-day cycles, no G-CSF, N = 3
[5] = intravenous, 100 mg, Cohort 5: 100 mg, Days 1 and 4, 28-day cycles, no G-CSF, N = 3
[6] = intravenous, 200 mg, Cohort 8: 200 mg, Day 1, 21-day cycles, optional G-CSF, N = 3
[7] = intravenous, 200 mg, Cohort 6: 200 mg, Days 1 and 4, 28-day cycles, no G-CSF, N = 9
[8] = intravenous, 200 mg, Cohort 7: 200 mg, Day 1, 28-day cycles, optional G-CSF, N = 4
[9] = intravenous, 400 mg, Cohort 9: 400 mg, Day 1, 21-day cycles, optional G-CSF, N = 7
[10] = intravenous, 500 mg, Cohort 12: 500 mg, Day 1, 21-day cycles, mandatory G-CSF, N = 6
[11] = intravenous, 600 mg, Cohort 11: 600 mg, Day 1, 21-day cycles, mandatory G-CSF, N = 3
[12] = over 0–72 h, a patient in Cohort 4 (51 mg AZD2811)

**Q.** Which “Dose proportionality of PK” value (across the dose range evaluated (15–600 mg)) does the source give for `CCN(CCO)CCCOc1ccc2c(Nc3cc(CC(=O)Nc4cccc(F)c4)n[nH]3)ncnc2c1` [AZD2811, AZD1152 hydroxyquinazoline pyrazole anilide] here?
**A.** The value was “broadly dose-proportional”.

**Q.** What about the “Urine samples with AZD2811 concentrations below the limit of quantification” value (first four cohorts) of the same compound?
**A.** Its value is over 80%.

**Q.** What about the “Duration of AZD2811 blood exposure” value (following a 2-h infusion on Day 1) of the same compound?
**A.** Its value is “sustained for several days”.

**Q.** And the “End of gradual monophasic decline in concentration post-infusion” value (following a 2-h infusion on Day 1, second and third phase 96 and 264 h post-dose)?
**A.** Its value is “approximately 96 h”.

**Q.** What about the Cmax (in vivo, Cohort 8: 200 mg, Day 1, 21-day cycles, optional G-CSF, N = 3) of the same compound?
**A.** Its Cmax is 41400 ng/mL.

**Q.** And the AUC(0-t) [1]?
**A.** The AUC(0-t) was 362 µg·h/mL.

**Q.** And the Cmax [1]?
**A.** Its Cmax is 3900 ng/mL.

**Q.** What about the Tmax [1] of the same compound?
**A.** Its Tmax is 77 h.

**Q.** And the AUC(0-t) [2]?
**A.** Its AUC(0-t) is 658 µg·h/mL.

**Q.** What about the Cmax [2] of the same compound?
**A.** Its Cmax is 6700 ng/mL.

**Q.** What about the Tmax [2] of the same compound?
**A.** The Tmax was 75 h.

**Q.** What about the AUC(0-t) [3] of the same compound?
**A.** The AUC(0-t) was 917 µg·h/mL.

**Q.** And the Cmax [3]?
**A.** Its Cmax is 8900 ng/mL.

**Q.** And the Tmax [3]?
**A.** Its Tmax is 75 h.

**Q.** What about the AUC(0-t) [4] of the same compound?
**A.** Its AUC(0-t) is 1420 µg·h/mL.

**Q.** And the Cmax [4]?
**A.** The Cmax was 14500 ng/mL.

**Q.** And the Tmax [4]?
**A.** The Tmax was 78 h.

**Q.** What about the AUC(0-t) [5] of the same compound?
**A.** The AUC(0-t) was 3670 µg·h/mL.

**Q.** What about the Cmax [5] of the same compound?
**A.** Its Cmax is 36800 ng/mL.

**Q.** What about the Tmax [5] of the same compound?
**A.** Its Tmax is 78 h.

**Q.** What about the AUC(0-t) (intravenous, 200 mg, Cohort 6: 200 mg, Days 1 and 4, 28-day cycles, no G-CSF, N = 8) of the same compound?
**A.** Its AUC(0-t) is 6220 µg·h/mL.

**Q.** What about the AUC(0-t) (intravenous, 200 mg, Cohort 7: 200 mg, Day 1, 28-day cycles, optional G-CSF, N = 3) of the same compound?
**A.** Its AUC(0-t) is 3020 µg·h/mL.

**Q.** What about the AUC(0-t) [6] of the same compound?
**A.** The AUC(0-t) was 2750 µg·h/mL.

**Q.** And the Cmax [7]?
**A.** The Cmax was 58300 ng/mL.

**Q.** And the Tmax [7]?
**A.** Its Tmax is 74 h.

**Q.** And the Cmax [8]?
**A.** Its Cmax is 43400 ng/mL.

**Q.** What about the Tmax [8] of the same compound?
**A.** Its Tmax is 2 h.

**Q.** And the Tmax [6]?
**A.** The Tmax was 4 h.

**Q.** And the AUC(0-t) [9]?
**A.** The AUC(0-t) was 5440 µg·h/mL.

**Q.** What about the Cmax [9] of the same compound?
**A.** The Cmax was 87300 ng/mL.

**Q.** And the Tmax [9]?
**A.** Its Tmax is 3 h.

**Q.** And the AUC(0-t) (intravenous, 500 mg, Cohort 12: 500 mg, Day 1, 21-day cycles, mandatory G-CSF, N = 5)?
**A.** Its AUC(0-t) is 7840 µg·h/mL.

**Q.** And the Cmax [10]?
**A.** Its Cmax is 93900 ng/mL.

**Q.** And the Tmax [10]?
**A.** The Tmax was 6 h.

**Q.** What about the AUC(0-t) [11] of the same compound?
**A.** Its AUC(0-t) is 11600 µg·h/mL.

**Q.** And the Cmax [11]?
**A.** The Cmax was 138000 ng/mL.

**Q.** And the Tmax [11]?
**A.** Its Tmax is 6 h.

**Q.** And the “Maximum amount excreted into urine as part of the dose” value [12]?
**A.** The value was < 1 % of the dose.

**Q.** What about the “Maximum amount of unchanged AZD2811 excreted into urine” value [12] of the same compound?
**A.** Its value is 294.40 µg.
